Molecular target: T1, SCD1 (Homo sapiens, UniProt O00767)
T1 construct: host or cells: S. cerevisiae ole1Δ strain, plasmid pRS316 with TDH3 promoter and CYC1 terminator
T1 sequence (O00767 1-359): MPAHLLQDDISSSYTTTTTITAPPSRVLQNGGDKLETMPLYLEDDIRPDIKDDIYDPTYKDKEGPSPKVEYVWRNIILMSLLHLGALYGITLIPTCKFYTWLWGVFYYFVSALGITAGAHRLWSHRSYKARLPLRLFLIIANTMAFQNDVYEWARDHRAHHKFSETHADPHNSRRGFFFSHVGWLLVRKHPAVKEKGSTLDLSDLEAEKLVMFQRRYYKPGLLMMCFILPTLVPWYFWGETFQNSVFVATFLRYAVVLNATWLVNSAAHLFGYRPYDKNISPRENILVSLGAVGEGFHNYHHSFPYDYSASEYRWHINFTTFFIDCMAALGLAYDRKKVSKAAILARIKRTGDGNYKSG
Experiment: Growth inhibition of humanized yeast expressing SCD1 as sole desaturase
Type: cell-based
Details: humanized yeast expressing SCD1
Procedure: Strain ole1Δ (yeast ole1 deletion mutant) was constructed by deleting OLE1 with NAT-MX6 in BY4741, amplifying the deletion cassette from the genomic DNA of the resulting strain with primers flanking the ORF by 1000 bp upstream and downstream, transforming the resulting deletion cassette into W303 pdr1Δ pdr3Δ, and plating transformants on YPD media containing G418 (200 μg/mL) and nourseothricin (100 μg/mL) with 0.01% TWEEN®-20 and 0.5 mM oleic and palmitoleic acids.
The coding sequence of yeast OLE1 was also cloned into this plasmid). These clones were then transformed into the ole1Δ strain and plated on CSM-Ura media (CSM lacking uracil) with 2% glucose (w/v) and independent colonies were isolated and amplified.
All compound profiling experiments were performed using the same basic protocol. Different genetic backgrounds (e.g., gene deletions) or conditions (e.g., addition of oleic and palmitoleic acid) were replaced as indicated below.
Yeast were cultured using standard techniques in complete synthetic media (CSM) and yeast nitrogen base supplemented with 2% (w/v) carbon source (glucose, raffinose, or galactose) to regulate the expression of the toxic disease protein. An initial starter culture was inoculated in 3 mL CSM-Glucose media and incubated overnight in a 30° C. shaker incubator (225 rpm). Saturated morning cultures were then diluted 1:20 in fresh CSM-Raffinose media and grown for 6 h to an OD600 (optical density) of ˜0.4-0.8 at 30° C. with shaking.
Compound administration was performed in two separate steps. First, 15 μL of CSM-Galactose (induces expression of toxic protein) was dispensed into clear 384 well assay plates using a MULTIDROP™ Combi reagent dispenser. […] The cultures described above were then diluted to a 2× concentration (0.03 and 0.08 for alpha-synuclein and ApoE, final OD600 of 0.015 and 0.04) in CSM-Galactose. For wild-type and Ole1/SCD1/SCD5 plasmid-containing strains, the 2× cell density was 0.02. […] For 96-well assays (FIGS. 1A and 1B), compound dilutions in DMSO were generated in 96 well plates and 1 μL was manually pipetted into 96 well clear bottom assay plates.
For experiments using a plasmid-borne copy of Ole1, SCD1, or SCD5 (FIGS. 3B, 6, and 7), media lacking uracil (SX-Ura, where X is glucose, raffinose, or galactose), was used for all steps of the compound profiling protocol to ensure its maintenance throughout the assay.
After yeast delivery, assay plates were incubated under humidified conditions at 30° C. for 24 to 40 h. ApoE4 rescue experiments were stopped at 24 h, aSyn experiments at 40 h, Ole1 at 24 h, and SCD1/SCD5 at 40 h. The growth of yeast was monitored by reading the OD600 of each well using a microplate reader (Perkin Elmer EnVision™).

Row | Compound | IC50 [µM]
1 | COc1ccc(-c2noc(CCNC(=O)CNC(=O)c3ccccc3)n2)cc1OC [Compound 484] | > 45
2 | O=C(CNC(=O)c1ccccc1)NCCc1nc(-c2ccccc2)no1 [Compound 485] | > 45
3 | COc1ccc(-c2noc(CCNC(=O)COc3cc(O)c4c(c3)OC(C)(C)CC4=O)n2)cc1OC [Compound 486] | > 45
4 | CC1(C)CC(=O)c2c(O)cc(OCC(=O)NCCc3nc(-c4ccccc4)no3)cc2O1 [Compound 487] | > 45
5 | COc1ccc(-c2noc(C3CCNCC3)n2)cc1OC [Compound 488] | > 45
6 | COc1cccc(-c2noc(C3CC(=O)N(c4ccc(C)c(C)c4)C3)n2)c1 (centres unmarked) [Compound 489] | 41
7 | CCN1C(=O)COc2ccc(-c3noc(C4(c5ccc(OC)cc5)CC4)n3)cc21 [Compound 491] | > 45
8 | CCN(Cc1nc(-c2ccc(OC)c(OC)c2)no1)C(=O)Cc1ccccc1 [Compound 492] | > 45
9 | CCNCc1nc(-c2ccc3c(c2)N(CC)C(=O)CO3)no1 [Compound 493] | > 45
10 | CCN(Cc1nc(-c2ccc3c(c2)N(CC)C(=O)CO3)no1)C(=O)Cc1cccc2ccccc12 [Compound 494] | > 45

Same assay, conditions: humanized yeast expressing human SCD1

Row | Compound | IC50 [µM]
11 | Cc1nn(C)c2cc(-c3noc(C4CCN(C(=O)c5ccccc5Cl)CC4)n3)ccc12 [Compound 288] | > 45
12 | Cc1c2ccc(-c3noc(C4CCN(C(=O)CNC(=O)c5ccccc5)CC4)n3)cc2nn1C(C)C [Compound 289] | > 45
13 | Cc1nn(C)c2cc(-c3noc(C4CCN(C(=O)c5ccc(C(C)C)cc5)CC4)n3)ccc12 [Compound 290] | > 45
14 | Cc1nn(C)c2cc(-c3noc(C4CCN(C(=O)c5ccc(Cl)cc5)CC4)n3)ccc12 [Compound 291] | > 45
15 | Cc1nn(C)c2cc(-c3noc(C4CCN(C(=O)c5cc(F)ccc5C(F)(F)F)CC4)n3)ccc12 [Compound 292] | > 45
16 | Cc1nn(C)c2cc(-c3noc(N4CCN(C(=O)c5ccccc5C(F)(F)F)CC4)n3)ccc12 [Compound 295] | > 45
17 | Cc1nn(C)c2ccc(-c3noc(C4CCN(C(=O)c5ccc(C(C)C)cc5)CC4)n3)cc12 [Compound 297] | > 45
18 | CCn1nc(C)c2ccc(-c3noc(C4CCN(C(=O)OC(C)(C)C)CC4)n3)cc21 [Compound 301] | > 45
19 | Cc1nn(C)c2cc(-c3noc(C4CCN(C(=O)CNC(=O)c5cc(F)ccc5C(F)(F)F)CC4)n3)ccc12 [Compound 304] | > 45
20 | CCc1nn(C)c2cc(-c3noc(C4CCN(C(=O)CNC(=O)c5ccccc5)CC4)n3)ccc12 [Compound 309] | > 45
21 | CCN1C(=O)CN(C)c2cc(-c3noc(C4CCN(C(=O)CNC(=O)c5ccccc5)CC4)n3)ccc21 [Compound 310] | > 45
22 | Cc1nn(C)c2cc(-c3noc(C4CCN(C(=O)N5CCOCC5)CC4)n3)ccc12 [Compound 311] | > 45
23 | Cc1nn(C)c2cc(-c3noc(C4CCN(C(=O)CNC(=O)c5ccc(C(F)(F)F)cc5)CC4)n3)ccc12 [Compound 317] | > 45
24 | CCn1nc2cc(-c3noc(C4CCN(C(=O)CNC(=O)c5ccccc5)CC4)n3)ccc2c1C [Compound 320] | > 45
25 | CCc1c2ccc(-c3noc(C4CCN(C(=O)CNC(=O)c5ccccc5)CC4)n3)cc2nn1C [Compound 321] | > 45
26 | Cc1nn(C)c2cc(-c3nc(C4CCN(C(=O)CNC(=O)c5ccccc5)CC4)no3)ccc12 [Compound 326] | > 45
27 | Cc1nn(C)c2cc(-c3noc(N4CCN(C(=O)N5CCCCC5)CC4)n3)ccc12 [Compound 327] | > 45
28 | Cc1nn(C)c2cc(-c3noc(C4CCN(C(=O)CNC(=O)c5cc(Cl)ccc5C(F)(F)F)CC4)n3)ccc12 [Compound 328] | > 45
29 | Cc1nn(C)c2cc(-c3noc(C4CCN(C(=O)N[C@@H]5C[C@@H]5c5ccccc5)CC4)n3)ccc12 [Compound 329] | > 45
30 | O=C(c1ccccc1)N1CCC(c2nc(N3CC4(COC4)C3)no2)CC1 [Compound 334] | > 45
31 | O=C(c1ccccc1)N1CCC(c2nc(N3CC4(CCCO4)C3)no2)CC1 [Compound 335] | > 45
32 | CC(C)c1ccc(C(=O)N2CCC(c3nc(N4CC5(CCCO5)C4)no3)CC2)cc1 [Compound 336] | > 45
33 | CC(C)c1ccc(C(=O)N2CCC(c3nc(N4CC5(COC5)C4)no3)CC2)cc1 [Compound 337] | > 45
34 | Cc1nn(C(C)C)c2cc(-c3noc(C4CCN(C(=O)OC(C)(C)C)CC4)n3)ccc12 [Compound 343] | > 45
35 | COC(=O)N1CCC(c2nc(-c3ccc4cnn(C(C)C)c4c3)no2)CC1 [Compound 355] | > 45

Row | Compound | IC50 [µM]
36 | COC(=O)N1CCN(c2nc(-c3ccc4cnn(C(C)C)c4c3)no2)CC1 [Compound 356] | > 45
37 | CC(C)OC(=O)N1CCC(c2nc(-c3ccc4cnn(C(C)C)c4c3)no2)CC1 [Compound 357] | > 45
38 | CC(C)n1ncc2ccc(-c3noc(C4CCN(C(=O)COc5ccccc5)CC4)n3)cc21 [Compound 358] | > 45
39 | Cn1ncc2ccc(-c3noc(C4CCN(C(=O)OC(C)(C)C)CC4)n3)cc21 [Compound 359] | > 45
40 | CC(C)(C)OC(=O)N1CCC(c2nc(-c3ccc4cnn(C5CC5)c4c3)no2)CC1 [Compound 360] | > 45
41 | CCOC(=O)N1CCC(c2nc(-c3ccc4cnn(C(C)C)c4c3)no2)CC1 [Compound 361] | > 45
42 | CC(C)n1ncc2ccc(-c3noc(N4CCN(C(=O)c5ccccc5)CC4)n3)cc21 [Compound 362] | > 45
43 | CC(C)n1ncc2ccc(-c3noc(C4CCN(C(=O)c5ccc(Cl)cc5)CC4)n3)cc21 [Compound 363] | > 45
44 | CC(C)n1ncc2ccc(-c3noc(N4CCN(C(=O)c5ccccc5Cl)CC4)n3)cc21 [Compound 364] | > 45
45 | Cc1nn(C)c2cc(-c3noc(C4CN(C(=O)OC(C)(C)C)C4)n3)ccc12 [Compound 365] | > 45
46 | CC(C)n1ncc2ccc(-c3noc(N4CCN(C(=O)CC5(C)CC5)CC4)n3)cc21 [Compound 495] | > 45
47 | CC(C)n1ncc2ccc(-c3noc(N4C[C@H]5CN(C(=O)CC(C)(C)C)C[C@H]5C4)n3)cc21 [Compound 497] | > 45
48 | CC(C)n1ncc2ccc(-c3noc([C@@H]4[C@@H]5CN(C(=O)OC(C)(C)C)C[C@@H]54)n3)cc21 [Compound 498] | > 45
49 | CC(C)n1ncc2ccc(-c3nc(C4CCN(C(=O)c5ccccn5)CC4)no3)cc21 [Compound 499] | > 45
50 | Cc1nn(C)c2cc(-c3noc(C4CCN(C(=O)CC5CN(C(=O)OC(C)(C)C)C5)CC4)n3)ccc12 [Compound 502] | > 45
51 | Cc1nn(C)c2cc(-c3nsc(C4CCN(C(=O)OC(C)(C)C)CC4)n3)ccc12 [Compound 503] | > 45
52 | CC(C)n1ncc2ccc(-c3nc(C4CCN(C(=O)c5ccc(Cl)cc5)CC4)no3)cc21 [Compound 505] | > 45
53 | CC(C)n1ncc2ccc(-c3nc(C4CCN(C(=O)c5cccc(F)c5)CC4)no3)cc21 [Compound 506] | > 45
54 | CC(C)OC(=O)N1CCC(c2nc(-c3ccc4oc(=O)n(C(C)C)c4c3)no2)CC1 [Compound 507] | > 45
55 | CC(C)n1ncc2ccc(-c3noc(C4=C(F)CN(C(=O)OC(C)(C)C)CC4)n3)cc21 [Compound 510] | > 45
56 | CC(C)n1ncc2ccc(-c3noc(C4CCN(C(=O)[C@@H]5CC(=O)N(c6cccc(C#N)c6)C5)CC4)n3)cc21 [Compound 528] | > 45
57 | CC(C)n1ncc2ccc(-c3noc(C4CCN(C(=O)[C@H]5CC(=O)N(c6cccc(C#N)c6)C5)CC4)n3)cc21 [Compound 529] | > 45
58 | CC(C)n1ncc2ccc(-c3noc(N4C[C@@H]5CNC[C@H]5C4)n3)cc21 [Compound 530] | > 45
59 | CC(C)n1ncc2ccc(-c3noc(C4CCN(C(=O)c5ccccc5F)CC4)n3)cc21 [Compound 532] | > 45

Reference: US20240400546A1, “COMPOUNDS AND USES THEREOF” (JANSSEN PHARMACEUTICA NV, priority 2016, published 2024)
